Drawing on PubChem BioAssay (NCI), this text covers TGI and GI50 for 13 compounds.

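Cells were grown in 96-well plates and exposed to each compound for 48 hours at five concentrations; endpoints were interpolated linearly between bracketing concentrations, or set to the highest concentration if not reached. GI50: concentration for 50% inhibition of growth. TGI: concentration producing complete growth inhibition.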

Some test systems named below: MCF7 breast; HCC-2998 colon; MDA-MB-231 breast; MDA-MB-435; SW-620 colon; NCI-H23 lung; NCI-H226 lung; OVCAR-5 ovarian; MALME-3M melanoma; U251 CNS.
Assay in all cases: NCI tumour cell line growth inhibition, 48 h

Turning to `COC1=CC23CCCN2CCc2cc4c(cc2C3C1O)OCO4` (stereo unspecified), the TGI in the assay with MCF7 breast, in the assay with HCC-2998 colon, in the assay on MDA-MB-231 breast, in the assay on MDA-MB-435, in the assay on SW-620 colon and in the assay with NCI-H23 lung was > 100 µM each time. Besides, the TGI in the assay with NCI-H226 lung, with OVCAR-5 ovarian, in the assay with MALME-3M melanoma and in the assay on U251 CNS was > 100 µM throughout.
In the case of `COc1cc2c(cc1OC)C(OC)N(C)c1c-2ccc2cc3c(cc12)OCO3` (stereo unspecified), the TGI in the assay on MCF7 breast is 12.6 µM; in the assay with HCC-2998 colon, 5.73 µM; in the assay on MDA-MB-231 breast, 5.16 µM; in the assay with MDA-MB-435, > 75 µM; with SW-620 colon it was 8.35 µM; in the assay on NCI-H23 lung, 6.49 µM. In addition, the TGI is 4.3 µM with NCI-H226 lung, 11.8 µM in the assay on OVCAR-5 ovarian, 20 µM in the assay with MALME-3M melanoma and 1.75 µM with U251 CNS.
With `C[C@@H](CN1CC(=O)NC(=O)C1)N1CC(=O)NC(=O)C1`, the TGI in the assay on MCF7 breast came out at 498 µM; in the assay on HCC-2998 colon, 1540 µM; with MDA-MB-231 breast it was 679 µM; with MDA-MB-435, 1470 µM; in the assay with SW-620 colon it was 1030 µM; in the assay on NCI-H23 lung, 791 µM. The TGI in the assay on NCI-H226 lung was 485 µM; with OVCAR-5 ovarian it was 1190 µM; in the assay on MALME-3M melanoma, 1100 µM; in the assay on U251 CNS, 839 µM. The GI50 in the assay with NCI-H226 lung was 90.7 µM.
On to `CN1C(=O)[C@@H](NC(=O)[C@H](CCC(F)(F)F)[C@H](CCC(F)(F)F)C(N)=O)N=C(c2ccccc2)c2ccccc21`, for which the GI50 in the assay with MCF7 breast was 33.4 µM; in the assay with HCC-2998 colon, > 100 µM; in the assay on MDA-MB-231 breast, 43.7 µM; in the assay with MDA-MB-435, 85.6 µM; in the assay on SW-620 colon, > 100 µM; in the assay with NCI-H23 lung it was > 100 µM. Also, the GI50 in the assay on NCI-H226 lung, in the assay on OVCAR-5 ovarian, with MALME-3M melanoma and in the assay with U251 CNS was > 100 µM in each case. For the same compound, the TGI in the assay on MCF7 breast, with HCC-2998 colon, with MDA-MB-231 breast, in the assay on MDA-MB-435, with SW-620 colon and in the assay on NCI-H23 lung was > 100 µM in each case. The TGI with NCI-H226 lung, with OVCAR-5 ovarian, with MALME-3M melanoma and in the assay on U251 CNS was > 100 µM in each case.
As to `CN(C)c1ncc(-c2ccc(C(F)(F)F)cc2)c(NC2CCCCCC2)n1`, the GI50 in the assay with MCF7 breast is 11.4 µM; in the assay with HCC-2998 colon, 13.8 µM; with MDA-MB-231 breast, 13.3 µM; with MDA-MB-435 it was 24.8 µM; in the assay on SW-620 colon, 15 µM; in the assay with NCI-H23 lung it was 17.3 µM. Moreover, the GI50 was 12.6 µM in the assay on NCI-H226 lung, 18.2 µM in the assay with OVCAR-5 ovarian, 14.4 µM in the assay on MALME-3M melanoma and 14.7 µM in the assay on U251 CNS. Also, the TGI in the assay with MCF7 breast was 24.9 µM; in the assay on HCC-2998 colon, 28.8 µM; with MDA-MB-231 breast, 28.8 µM; in the assay with MDA-MB-435 it was > 100 µM; in the assay on SW-620 colon, 37.3 µM; in the assay on NCI-H23 lung it was 57.3 µM. Moreover, the TGI in the assay on NCI-H226 lung is 28.8 µM; in the assay on OVCAR-5 ovarian, 38.8 µM; in the assay on MALME-3M melanoma, 40.4 µM; in the assay on U251 CNS it was 30 µM.
`O=C(O)c1cc2ccccc2oc1=O`: the TGI in the assay on MCF7 breast, in the assay on HCC-2998 colon, in the assay with MDA-MB-231 breast, in the assay with MDA-MB-435, with SW-620 colon and in the assay on NCI-H23 lung was > 100 µM in each case. Further, the TGI in the assay with NCI-H226 lung, in the assay on OVCAR-5 ovarian, in the assay on MALME-3M melanoma and in the assay on U251 CNS was > 100 µM in each case.
Consider `CS(=O)(=O)Nc1cccc(-c2cc(-c3ccccc3Cl)c(C#N)c(N)n2)c1`, for which the GI50 was 0.478 µM with MCF7 breast; 1.36 µM in the assay on HCC-2998 colon; 0.712 µM in the assay with MDA-MB-231 breast; 0.165 µM with MDA-MB-435; 0.425 µM with SW-620 colon; 0.651 µM with NCI-H23 lung. For the same compound, the GI50 in the assay on NCI-H226 lung was 10.2 µM; in the assay with OVCAR-5 ovarian it was 3.22 µM; in the assay with MALME-3M melanoma it was 3.23 µM; in the assay on U251 CNS, 0.531 µM. Further, the TGI was found to be 14.3 µM in the assay on MCF7 breast; 8.52 µM in the assay with HCC-2998 colon; 15.5 µM in the assay on MDA-MB-231 breast; 1.76 µM in the assay on MDA-MB-435; 16.7 µM with SW-620 colon; 19.5 µM in the assay with NCI-H23 lung. The TGI with NCI-H226 lung is 32.3 µM; with OVCAR-5 ovarian, 19.9 µM; in the assay with MALME-3M melanoma, 25 µM; in the assay with U251 CNS, 15.4 µM.
Take `N#CC(C#N)N=Nc1ccc(Br)cc1`: the GI50 is 2.74 µM with MCF7 breast; 8.04 µM in the assay with HCC-2998 colon; 1.69 µM in the assay on MDA-MB-231 breast; 4.19 µM in the assay on MDA-MB-435; 3.01 µM with SW-620 colon; 2.42 µM in the assay with NCI-H23 lung. In addition, the GI50 is 4.63 µM in the assay on NCI-H226 lung, 4.8 µM in the assay on OVCAR-5 ovarian, 1.35 µM with MALME-3M melanoma and 16.2 µM in the assay with U251 CNS. In addition, the TGI in the assay on MCF7 breast was > 51.7 µM; in the assay with HCC-2998 colon it was 33.1 µM; with MDA-MB-231 breast, 7.04 µM; with MDA-MB-435 it was 20 µM; in the assay with SW-620 colon, 15.8 µM; in the assay with NCI-H23 lung it was 26.7 µM. Moreover, the TGI in the assay on NCI-H226 lung was 27 µM; in the assay on OVCAR-5 ovarian it was > 72.6 µM; in the assay on MALME-3M melanoma it was 10.4 µM; with U251 CNS, > 100 µM.
For `O=C(O)c1ccc(S(=O)(=O)Nc2ccc3oc4c(c3c2)C(=O)CCC4)cc1`, the GI50 with MCF7 breast, in the assay with HCC-2998 colon, in the assay on MDA-MB-231 breast, with MDA-MB-435, with SW-620 colon and in the assay on NCI-H23 lung was > 100 µM in each case. Also, the GI50 in the assay on NCI-H226 lung, in the assay with OVCAR-5 ovarian, with MALME-3M melanoma and in the assay on U251 CNS was > 100 µM in each case. Moreover, the TGI in the assay with MCF7 breast, in the assay on HCC-2998 colon, in the assay on MDA-MB-231 breast, in the assay on MDA-MB-435, in the assay on SW-620 colon and in the assay on NCI-H23 lung was > 100 µM each time. Also, the TGI in the assay on NCI-H226 lung, with OVCAR-5 ovarian, in the assay on MALME-3M melanoma and in the assay with U251 CNS was > 100 µM each time.
As for `O=c1c(O)cccc2cc(O)c(O)c(O)c12`, the GI50 was 6.46 µM with MCF7 breast; > 100 µM with HCC-2998 colon; 7.5 µM with MDA-MB-231 breast; 3.82 µM with MDA-MB-435; 20.2 µM in the assay with SW-620 colon; 8.89 µM with NCI-H23 lung. The GI50 in the assay on NCI-H226 lung is > 100 µM; in the assay with OVCAR-5 ovarian it was 41.8 µM; in the assay on MALME-3M melanoma it was 4.99 µM; with U251 CNS, 6.03 µM. For the same compound, the TGI is 23.9 µM in the assay with MCF7 breast; > 100 µM in the assay on HCC-2998 colon; > 100 µM in the assay with MDA-MB-231 breast; > 100 µM with MDA-MB-435; > 100 µM in the assay with SW-620 colon; > 100 µM with NCI-H23 lung. In addition, the TGI with NCI-H226 lung, in the assay on OVCAR-5 ovarian, in the assay on MALME-3M melanoma and with U251 CNS was > 100 µM each time.
Turning to `CC(C)CC(=O)Nc1n[nH]c2c1CN(C(=O)C1CCN(C)CC1)C2(C)C`, the GI50 is 0.191 µM with MCF7 breast; 1.17 µM in the assay with HCC-2998 colon; 0.894 µM with MDA-MB-231 breast; 1.41 µM in the assay with MDA-MB-435; 0.895 µM in the assay with SW-620 colon; 0.352 µM in the assay with NCI-H23 lung. In addition, the GI50 was 1.48 µM in the assay on NCI-H226 lung, 1.9 µM in the assay with OVCAR-5 ovarian, 6.95 µM in the assay on MALME-3M melanoma and 0.439 µM in the assay on U251 CNS. Besides, the TGI in the assay with MCF7 breast was > 10 µM; in the assay with HCC-2998 colon it was > 10 µM; in the assay with MDA-MB-231 breast, > 10 µM; in the assay on MDA-MB-435, > 10 µM; in the assay with SW-620 colon, > 10 µM; in the assay with NCI-H23 lung it was 5.4 µM. For the same compound, the TGI in the assay with NCI-H226 lung, with OVCAR-5 ovarian, in the assay with MALME-3M melanoma and in the assay on U251 CNS was > 10 µM throughout.
For the compound `CS(=O)(=O)CCNCc1ccc(-c2ccc3ncnc(Nc4ccc(OCc5cccc(F)c5)c(C(F)(F)F)c4)c3c2)o1`, the GI50 is 3.84 µM in the assay on MCF7 breast; 4.4 µM with HCC-2998 colon; 3.78 µM in the assay with MDA-MB-231 breast; 4.01 µM with MDA-MB-435; 4.15 µM in the assay with SW-620 colon; 3.88 µM with NCI-H23 lung. Besides, the GI50 with NCI-H226 lung is 3.44 µM; with OVCAR-5 ovarian, 5.29 µM; in the assay on MALME-3M melanoma it was 2.74 µM; in the assay with U251 CNS it was 3.98 µM. The TGI worked out at 7.74 µM in the assay with MCF7 breast; 8.29 µM in the assay with HCC-2998 colon; 9.83 µM in the assay on MDA-MB-231 breast; 7.68 µM in the assay on MDA-MB-435; 7.93 µM with SW-620 colon; 8.51 µM in the assay with NCI-H23 lung. For the same compound, the TGI in the assay with NCI-H226 lung was determined as 6.75 µM; in the assay on OVCAR-5 ovarian, 15 µM; in the assay on MALME-3M melanoma, 4.11 µM; in the assay on U251 CNS, 8.48 µM.
As to `O=C(Nc1ccccc1O)c1ccc(CNc2ccnc(C(F)(F)F)c2)cc1`, the GI50 in the assay on MCF7 breast is 4.43 µM; in the assay with HCC-2998 colon, 10.2 µM; in the assay with MDA-MB-231 breast it was 9.29 µM; in the assay on MDA-MB-435, 3.47 µM; in the assay with SW-620 colon it was 5.75 µM; in the assay on NCI-H23 lung it was 4.72 µM. For the same compound, the GI50 was 6.56 µM in the assay on NCI-H226 lung, 16.5 µM in the assay on OVCAR-5 ovarian, 1.03 µM with MALME-3M melanoma and 4.73 µM in the assay on U251 CNS. The TGI in the assay on MCF7 breast was > 100 µM; in the assay on HCC-2998 colon it was 26.5 µM; with MDA-MB-231 breast, 50.6 µM; in the assay with MDA-MB-435, 20.9 µM; with SW-620 colon, 23 µM; in the assay with NCI-H23 lung, 81.4 µM. The TGI in the assay on NCI-H226 lung was 33.8 µM; with OVCAR-5 ovarian, > 100 µM; in the assay on MALME-3M melanoma, 11.6 µM; in the assay on U251 CNS, > 100 µM.
